Experimental data: patent publication US10681909B2, “Herbicidal triazoles” (FMC Corporation, priority 2014, dated 2020)

Assays:
oilseed rape = experiment: Test C postemergence; assay type: in vivo, Brassica napus
Description: (§1) Seeds of plant species selected from blackgrass (Alopecurus myosuroides), ryegrass, Italian (Italian ryegrass, Lolium multiflorum), wheat (winter wheat, Triticum aestivum), galium (catchweed bedstraw, Galium aparine), corn (Zea mays), crabgrass, large (large crabgrass, Digitaria sanguinalis), foxtail, giant, (giant foxtail, Setaria faberii), johnsongrass (Sorghum halepense), lambsquarters (Chenopodium album), morningglory (Ipomoea coccinea), nutsedge, yellow (yellow nutsedge, Cyperus esculentus), pigweed (Amaranthus retroflexus), ragweed (common ragweed, Ambrosia elatior), soybean (Glycine max), barnyardgrass (Echinochloa crus-galli), oilseed rape (Brassica napus), waterhemp (common waterhemp, Amaranthus rudis), and velvetleaf (Abutilon theophrasti) were planted into a blend of loam soil and sand and treated preemergence with test chemicals formulated in a non-phytotoxic solvent mixture which included a surfactant. At the same time, plants selected from these crop and weed species and also chickweed (common chickweed, Stellaria media), oat, wild (wild oat, Avena fatua), and kochia (Kochia scoparia), were planted in pots containing Sunshine Redi-Earth® planting medium comprising spaghnum peat moss, vermiculite, starter nutrients and dolomitic limestone and treated with postemergence applications of test chemicals formulated in the same manner. Plants ranged in height from 2 to 18 cm (1- to 4-leaf stage) for postemergence treatments. […] A dash (-) response means no test result.

lambsquarters = experiment: Test C postemergence; assay type: in vivo, Chenopodium album
Description: as §1

chickweed = experiment: Test C postemergence; assay type: in vivo, Stellaria media
Description: as §1

wheat (winter wheat) = experiment: Test C postemergence; assay type: in vivo, Triticum aestivum
Description: as §1

barnyardgrass [1] = experiment: Test A postemergence; assay type: in vivo, Echinochloa crus-galli; conditions: Echinochloa crus-galli, post-emergence, 240 h, 0 to 100 scale (0 no effect, 100 complete control), approx. 10 d, read-out: Plant response rating, Barnyardgrass
Method in brief: (§2)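 Loam/sand soil mix; compound in non-phytotoxic solvent + surfactant. Pre: directed soil spray right after planting seed. Post: potted plants 2–10 cm, 1–2 leaf stage, sprayed with same formulation.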

foxtail, giant [2] = experiment: Test C postemergence; assay type: in vivo, Setaria faberii
Description: as §1

johnsongrass = experiment: Test C postemergence; assay type: in vivo, Sorghum halepense
Description: as §1

velvetleaf = experiment: Test C postemergence; assay type: in vivo, Abutilon theophrasti
Description: as §1

oat, wild = experiment: Test C postemergence; assay type: in vivo, Avena fatua
Description: as §1

foxtail, giant [3] = experiment: Test A preemergence; assay type: in vivo, Setaria faberii; conditions: Setaria faberi, pre-emergence, 240 h, 0 to 100 scale (0 no effect, 100 complete control), read-out: Plant response rating, Foxtail, Giant
Method in brief: as §2

pigweed [4] = experiment: Test A postemergence; assay type: in vivo, Amaranthus retroflexus; conditions: Amaranthus retroflexus, post-emergence, 240 h, 0 to 100 scale (0 no effect, 100 complete control), approx. 10 d, read-out: Plant response rating, Pigweed
Method in brief: as §2

barnyardgrass [5] = experiment: Test B flooded paddy test; assay type: in vivo, Echinochloa crus-galli; conditions: Echinochloa crus-galli, 360 h, 125 g ai/ha, applied to paddy water at 2-leaf stage, visual rating after 13 to 15 d, scale 0 (no effect) to 100 (complete control), read-out: Plant response rating, Barnyardgrass, Flood
Method in brief: (§3)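 Pots were flooded to 3 cm above the soil at treatment, and compounds were applied directly into the paddy water. That depth was held throughout. After 13 to 15 d in a greenhouse, plants were rated visually against untreated controls.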

morningglory = experiment: Test C postemergence; assay type: in vivo, Ipomoea coccinea
Description: as §1

pigweed [6] = experiment: Test C postemergence; assay type: in vivo, Amaranthus retroflexus
Description: as §1

ragweed = experiment: Test C postemergence; assay type: in vivo, Ambrosia elatior
Description: as §1

corn = experiment: Test A postemergence; assay type: in vivo, Zea mays; conditions: Zea mays, post-emergence, 240 h, 0 to 100 scale (0 no effect, 100 complete control), approx. 10 d
Method in brief: as §2

rice = experiment: Test B flooded paddy test; assay type: in vivo, Oryza sativa; conditions: Oryza sativa, 360 h, 125 g ai/ha, applied to paddy water at 2-leaf stage, visual rating after 13 to 15 d, scale 0 (no effect) to 100 (complete control), read-out: Plant response rating, Rice, Flood
Method in brief: as §3

nutsedge, yellow = experiment: Test C postemergence; assay type: in vivo, Cyperus esculentus
Description: as §1

crabgrass, large = experiment: Test C postemergence; assay type: in vivo, Digitaria sanguinalis
Description: as §1

kochia = experiment: Test C postemergence; assay type: in vivo, Kochia scoparia
Description: as §1

CCc1nc(-c2ccc(C(F)(F)F)cc2)nn1Cc1ccnc(C(F)(F)F)c1 [Compound 1, 4-[[5-ethyl-3-[4-(trifluoromethyl)phenyl]-1H-1,2,4-triazol-1-yl]methyl]-2-(trifluoromethyl)pyridine]
Plant response rating (scale of 0 to 100 where 0 is no effect and 100 is complete control) (oilseed rape; Oilsee Rape, 250 g ai/ha): 90 | Plant response rating (scale of 0 to 100 where 0 is no effect and 100 is complete control) (oilseed rape; Oilseed Rape, 31 g ai/ha): 50 | Plant response rating (scale of 0 to 100 where 0 is no effect and 100 is complete control) (oilseed rape; Oilseed Rape, 62 g ai/ha): 70 | Plant response rating (scale of 0 to 100 where 0 is no effect and 100 is complete control) (oilseed rape; Oilseed Rape, 125 g ai/ha): 80 | Plant response rating (scale of 0 to 100 where 0 is no effect and 100 is complete control) (lambsquarters; 31 g ai/ha): 70 | Plant response rating (scale of 0 to 100 where 0 is no effect and 100 is complete control) (lambsquarters; 62 g ai/ha): 70 | Plant response rating (scale of 0 to 100 where 0 is no effect and 100 is complete control) (lambsquarters; 125 g ai/ha): 75 | Plant response rating (scale of 0 to 100 where 0 is no effect and 100 is complete control) (lambsquarters; 250 g ai/ha): 80 | Plant response rating (scale of 0 to 100 where 0 is no effect and 100 is complete control) (chickweed; 31 g ai/ha): 60 | Plant response rating (scale of 0 to 100 where 0 is no effect and 100 is complete control) (chickweed; 62 g ai/ha): 85 | Plant response rating (scale of 0 to 100 where 0 is no effect and 100 is complete control) (chickweed; 125 g ai/ha): 85 | Plant response rating (scale of 0 to 100 where 0 is no effect and 100 is complete control) (chickweed; 250 g ai/ha): 95 | Plant response rating (scale of 0 to 100 where 0 is no effect and 100 is complete control) (wheat (winter wheat); 31 g ai/ha): 10 | Plant response rating (scale of 0 to 100 where 0 is no effect and 100 is complete control) (wheat (winter wheat); 62 g ai/ha): 10 | Plant response rating (scale of 0 to 100 where 0 is no effect and 100 is complete control) (wheat (winter wheat); 125 g ai/ha): 15 | Plant response rating (scale of 0 to 100 where 0 is no effect and 100 is complete control) (wheat (winter wheat); 250 g ai/ha): 20 | pest or weed control at 125 g/ha (barnyardgrass [1]; 125 g ai/ha): 80% | pest or weed control at 500 g/ha (barnyardgrass [1]; 500 g ai/ha): 90% | Plant response rating (scale of 0 to 100 where 0 is no effect and 100 is complete control) (foxtail, giant [2]; 31 g ai/ha): 35 | Plant response rating (scale of 0 to 100 where 0 is no effect and 100 is complete control) (foxtail, giant [2]; 62 g ai/ha): 35 | Plant response rating (scale of 0 to 100 where 0 is no effect and 100 is complete control) (foxtail, giant [2]; 125 g ai/ha): 55 | Plant response rating (scale of 0 to 100 where 0 is no effect and 100 is complete control) (foxtail, giant [2]; 250 g ai/ha): 55 | Plant response rating (scale of 0 to 100 where 0 is no effect and 100 is complete control) (johnsongrass; 31 g ai/ha): 10 | Plant response rating (scale of 0 to 100 where 0 is no effect and 100 is complete control) (johnsongrass; 62 g ai/ha): 10 | Plant response rating (scale of 0 to 100 where 0 is no effect and 100 is complete control) (johnsongrass; 125 g ai/ha): 15 | Plant response rating (scale of 0 to 100 where 0 is no effect and 100 is complete control) (johnsongrass; 250 g ai/ha): 20 | Plant response rating (scale of 0 to 100 where 0 is no effect and 100 is complete control) (velvetleaf; 31 g ai/ha): 40 | Plant response rating (scale of 0 to 100 where 0 is no effect and 100 is complete control) (velvetleaf; 62 g ai/ha): 55 | Plant response rating (scale of 0 to 100 where 0 is no effect and 100 is complete control) (velvetleaf; 125 g ai/ha): 60 | Plant response rating (scale of 0 to 100 where 0 is no effect and 100 is complete control) (velvetleaf; 250 g ai/ha): 75 | Plant response rating (scale of 0 to 100 where 0 is no effect and 100 is complete control) (oat, wild; 31 g ai/ha): 5 | Plant response rating (scale of 0 to 100 where 0 is no effect and 100 is complete control) (oat, wild; 62 g ai/ha): 10 | Plant response rating (scale of 0 to 100 where 0 is no effect and 100 is complete control) (oat, wild; 125 g ai/ha): 15 | Plant response rating (scale of 0 to 100 where 0 is no effect and 100 is complete control) (oat, wild; 250 g ai/ha): 25 | pest or weed control at 125 g/ha (foxtail, giant [3]; 125 g ai/ha): 100% | pest or weed control at 500 g/ha (foxtail, giant [3]; 500 g ai/ha, approx. 10 d): 100% | pest or weed control at 125 g/ha (pigweed [4]; 125 g ai/ha): 100% | pest or weed control at 500 g/ha (pigweed [4]; 500 g ai/ha): 100% | pest or weed control at 125 g/ha (barnyardgrass [5]): 40% | Plant response rating (scale of 0 to 100 where 0 is no effect and 100 is complete control) (morningglory; 31 g ai/ha): 60 | Plant response rating (scale of 0 to 100 where 0 is no effect and 100 is complete control) (morningglory; 62 g ai/ha): 70 | Plant response rating (scale of 0 to 100 where 0 is no effect and 100 is complete control) (morningglory; 125 g ai/ha): 70 | Plant response rating (scale of 0 to 100 where 0 is no effect and 100 is complete control) (morningglory; 250 g ai/ha): 95 | Plant response rating (scale of 0 to 100 where 0 is no effect and 100 is complete control) (pigweed [6]; 31 g ai/ha): 50 | Plant response rating (scale of 0 to 100 where 0 is no effect and 100 is complete control) (pigweed [6]; 62 g ai/ha): 98 | Plant response rating (scale of 0 to 100 where 0 is no effect and 100 is complete control) (pigweed [6]; 125 g ai/ha): 98 | Plant response rating (scale of 0 to 100 where 0 is no effect and 100 is complete control) (pigweed [6]; 250 g ai/ha): 100 | Plant response rating (scale of 0 to 100 where 0 is no effect and 100 is complete control) (ragweed; 31 g ai/ha): 60 | Plant response rating (scale of 0 to 100 where 0 is no effect and 100 is complete control) (ragweed; 62 g ai/ha): 70 | Plant response rating (scale of 0 to 100 where 0 is no effect and 100 is complete control) (ragweed; 125 g ai/ha): 75 | Plant response rating (scale of 0 to 100 where 0 is no effect and 100 is complete control) (ragweed; 250 g ai/ha): 80 | Corn plant response rating (crop injury, 0 = no effect, 100 = complete kill) at 125 g/ha (corn; 125 g ai/ha): 30% | Corn plant response rating (crop injury, 0 = no effect, 100 = complete kill) at 500 g/ha (corn; 500 g ai/ha): 80% | plant injury at 125 g/ha (rice): 25% | Plant response rating (scale of 0 to 100 where 0 is no effect and 100 is complete control) (nutsedge, yellow; 31 g ai/ha): 5 | Plant response rating (scale of 0 to 100 where 0 is no effect and 100 is complete control) (nutsedge, yellow; 62 g ai/ha): 5 | Plant response rating (scale of 0 to 100 where 0 is no effect and 100 is complete control) (nutsedge, yellow; 125 g ai/ha): 5 | Plant response rating (scale of 0 to 100 where 0 is no effect and 100 is complete control) (nutsedge, yellow; 250 g ai/ha): 10 | Plant response rating (scale of 0 to 100 where 0 is no effect and 100 is complete control) (crabgrass, large; 31 g ai/ha): 5 | Plant response rating (scale of 0 to 100 where 0 is no effect and 100 is complete control) (crabgrass, large; 62 g ai/ha): 5 | Plant response rating (scale of 0 to 100 where 0 is no effect and 100 is complete control) (crabgrass, large; 125 g ai/ha): 45 | Plant response rating (scale of 0 to 100 where 0 is no effect and 100 is complete control) (crabgrass, large; 250 g ai/ha): 45 | Plant response rating (scale of 0 to 100 where 0 is no effect and 100 is complete control) (kochia; 31 g ai/ha): 85 | Plant response rating (scale of 0 to 100 where 0 is no effect and 100 is complete control) (kochia; 62 g ai/ha): 85 | Plant response rating (scale of 0 to 100 where 0 is no effect and 100 is complete control) (kochia; 125 g ai/ha): 90 | Plant response rating (scale of 0 to 100 where 0 is no effect and 100 is complete control) (kochia; 250 g ai/ha): 90
